Results from patent US4973576A, “Bisphophonic acid derivatives and pharmaceutical compositions containing the same” (Yamanouchi Pharmaceutical Co., Ltd., priority 1987, dated 1990).

Columns and labels:
[1] = test system: hypercalcemia induced by administration of parathyroid hormone (PTH); test: Inhibitory effect on hypercalcemia induced by PTH in rats (serum Ca++); assay type: in vivo, male Wistar rats; conditions: mean ± S.E.
Protocol: Rats of hypercalcemia induced by administration of parathyroid hormone (hereinafter referred to as "PTH") were used, and the decrement of the serum calcium amount by administration of the compound was measured.
30 μg/kg of human 1-34 PTH (manufactured by Peptide Laboratory) which was dissolved in a 0.1% BSA (bovine serum albumin)-containing physiological saline (content of the PTH is 6 μg/ml) was intravenously injected in an amount of 30 μg/kg (5 ml/kg as the solution) to 5-week male Wistar rats which had been fasting for 20 hours. Only 0.1% BSA-containing physiological saline was injected to the normal control group in the same manner. 45 minutes after the PTH injection, the rats were etherized and then subjected to celiotomy, whereby the blood was collected from the abdominal cava with a vacuum blood-collecting tube. The blood collected was immediately centrifuged by 3000 rpm, at 4° C. for 10 minutes to isolate the serum. The ionized calcium (Ca^++) concentration in the serum was immediately measured with a Ca^++ meter (Sera 250, manufactured by Horiba Manufacturing Co.).
The compounds of the present invention were dissolved using sodium hydroxide and hydrochloric acid, in physiological saline (pH 7.4), for subcutaneous administration, in such amounts that the dose amounted to 2 ml/kg, and for oral administration, in distilled water (pH 7.4) so that the dose amounted to 5 ml/kg. They were administered 24 or 72 hours before the PTH injection. A physiological saline or a distilled water was administered to the normal control group and the control group, in the same manner. Salmon calcitonin (SCT, manufactured by Armour Co.) was dissolved in physiological saline so that the dose amounted to 2 ml/kg, and then subcutaneously administered 30 minutes before the PTH injection.
The results for each group were expressed in terms of mean±S.E. (standard error) and comparison was made among the groups by testing by one-way analysis of variance. The significance level was taken at 5%.

[2] = test system: immobilization-induced atrophy of bone; test: Inhibition of bone resorption: immobilization-induced (neurectomy) atrophy of bone in rats; assay type: in vivo, Wistar rats; conditions: 2 weeks
adjuvant arthritis = test: Experiment (3)-I: therapeutic effect on adjuvant arthritis in rats; assay type: in vivo, male Lewis rats; conditions: po
Protocol: Specifically, for investigation of the anti-arthritic effect, experimental models of adjuvant arthritis which is resemble to rheumatoid arthritis in human were used in two test methods. In one method to test the therapeutic effect of the compounds, the compounds to be tested were administered to the animals already having the adjuvant arthritis. In the other method to test the prophylactic effect of the compounds, these were administered after the adjuvant administration, and the expression and progress of the resulting arthritis, if any, was observed.
0.1 ml of a suspension of dry dead cells of Mycobacterium butyricum as suspended in liquid paraffin in a proportion of 6 mg/ml was subcutaneously injected to male Lewis rats (7-week) in the tail. After 17 or 18 days, the thickness of the both hind paws was measured. One group comprising six rats in which the arthritis was noticeably observed was isolated. After the grouping day, the compound to be tested was subcutaneously or orally administered once a day for 14 days to the rats. Next day after the last administration, the thickness of the soles of the both hind legs was again measured.
For the Experiments (3)-I and (3)-II, the compounds of the present invention were dissolved, using sodium hydroxide and hydrochloric acid in physiological saline (pH 7.4), for subcutaneous administration, in such amount that the dose amounted to 2 ml/kg, and for oral administration, in distilled water (pH 7.4) so that the dose amounted to 5 ml/kg; and indometacin (as comparative drug) was suspended in 0.5% methyl cellulose solution so that the dose amounted to 5 ml/kg. Each rat was weighed at the first day of starting the administration of the compound to be tested and at the last day of the administration of the compound, and the difference of the weight there between (ΔB.W.) was obtained.
The results for each group were expressed in terms of mean ±S.E. (standard error) and comparison was made among the groups by testing by one-way analysis of variance. The significance level was taken at 5%.

[3] = sc, 0.1 mg/kg, 72 hours before PTH injection
[4] = sc, 0.3 mg/kg, 72 hours before PTH injection
[5] = oral, 30 mg/kg, 72 hours before PTH injection
[6] = oral, 100 mg/kg, 72 hours before PTH injection
[7] = sc, 30 mg/kg, 24 hours before PTH injection
[8] = sc, 0.01 mg/kg, 72 hours before PTH injection
[9] = sc, 0.03 mg/kg, 72 hours before PTH injection

Compound: CC(O)(P(=O)(O)O)P(=O)(O)O [Etidronate, 1-hydroxyethylidene-1,1-bisphosphonic acid, reference compound]
- Serum Ca++ ([1]; sc, 10 mg/kg, 72 hours before PTH injection): 1.44 ± 0.01 m mole/liter
- Serum Ca++ ([1]; sc, 30 mg/kg, 72 hours before PTH injection): 1.40 ± 0.01 m mole/liter

Compound: O=P(O)(O)C(Nc1cc(C2CC2)on1)P(=O)(O)O [Example 6, [(5-cyclopropyl-3-isoxazolyl)-amino]-methylene-bis(phosphonic acid)]
- Serum Ca++ [1, 3]: 1.42 ± 0.02 m mole/liter
- Serum Ca++ [1, 4]: 1.25 ± 0.02 m mole/liter

Compound: CCCc1cc(NC(P(=O)(O)O)P(=O)(O)O)no1 [Example 8]
- Serum Ca++ [1, 5]: 1.48 ± 0.02 m mole/liter
- Serum Ca++ [1, 6]: 1.35 ± 0.02 m mole/liter
- Serum Ca++ [1, 3]: 1.41 ± 0.02 m mole/liter
- Serum Ca++ [1, 4]: 1.27 ± 0.02 m mole/liter

Compound: CC(=O)N(c1cc(C)on1)C(P(=O)(O)O)P(=O)(O)O [Example 12, [N-acetyl(5-methyl-3-isoxazolyl)amino]methylene-bis(phosphonic acid)]
- Serum Ca++ [1, 7]: 1.44 ± 0.02 m mole/liter

Compound: CCOP(=O)(O)C(Nc1cc(C)on1)P(=O)(O)O (stereo not shown) [Example 14, ethyl [(5-methyl-3-isoxazolyl)amino]methylene-bis(phosphonate)]
- Serum Ca++ [1, 7]: 1.45 ± 0.02 m mole/liter

Compound: CCCCCc1cc(NC(P(=O)(O)O)P(=O)(O)O)no1 [Example 21, [(5-n-pentyl-3-isoxazolyl)amino]methylene-bis(phosphonic acid)]
- Left humerus Ashed weight ([2]; oral, 3 mg/kg): 64.4 ± 2.3 mg
- Left humerus Ashed weight / Dry weight ([2]; oral, 3 mg/kg): 54.4 ± 0.2%
- Left humerus Dry weight ([2]; oral, 3 mg/kg): 113.0 ± 3.1 mg
- Left humerus Ashed weight ([2]; oral, 10 mg/kg): 67.0 ± 1.2 mg
- Left humerus Ashed weight / Dry weight ([2]; oral, 10 mg/kg): 56.0 ± 0.4%
- Left humerus Dry weight ([2]; oral, 10 mg/kg): 115.2 ± 4.0 mg
- Left humerus Ashed weight ([2]; oral, 30 mg/kg): 65.7 ± 0.9 mg
- Left humerus Ashed weight / Dry weight ([2]; oral, 30 mg/kg): 56.5 ± 0.2%
- Left humerus Dry weight ([2]; oral, 30 mg/kg): 118.7 ± 2.0 mg
- Left humerus Ashed weight ([2]; sc, 0.01 mg/kg): 65.7 ± 0.9 mg
- Left humerus Ashed weight / Dry weight ([2]; sc, 0.01 mg/kg): 56.4 ± 0.2%
- Left humerus Dry weight ([2]; sc, 0.01 mg/kg): 116.5 ± 1.5 mg
- Left humerus Ashed weight ([2]; sc, 0.03 mg/kg): 73.6 ± 0.7 mg
- Left humerus Ashed weight / Dry weight ([2]; sc, 0.03 mg/kg): 56.9 ± 0.2%
- Left humerus Dry weight ([2]; sc, 0.03 mg/kg): 129.2 ± 1.0 mg
- Left humerus Ashed weight ([2]; sc, 0.1 mg/kg): 72.8 ± 1.8 mg
- Left humerus Ashed weight / Dry weight ([2]; sc, 0.1 mg/kg): 55.9 ± 0.4%
- Left humerus Dry weight ([2]; sc, 0.1 mg/kg): 130.1 ± 3.2 mg
- Serum Ca++ ([1]; oral, 10 mg/kg, 72 hours before PTH injection): 1.52 ± 0.02 m mole/liter
- Serum Ca++ [1, 5]: 1.36 ± 0.06 m mole/liter
- Serum Ca++ [1, 6]: 1.33 ± 0.04 m mole/liter
- Serum Ca++ [1, 8]: 1.47 ± 0.02 m mole/liter
- Serum Ca++ [1, 9]: 1.38 ± 0.01 m mole/liter
- Serum Ca++ [1, 3]: 1.22 ± 0.003 m mole/liter
- Thickness of Paw (average of right and left paws) (adjuvant arthritis; 10 mg/kg once a day 14 days): 1317 ± 35 × 0.01 mm
- ΔB.W. (adjuvant arthritis; 10 mg/kg once a day 14 days): 29.7 ± 1.1 g
- Thickness of Paw (average of right and left paws) (adjuvant arthritis; 30 mg/kg once a day 14 days): 1321 ± 35 × 0.01 mm
- ΔB.W. (adjuvant arthritis; 30 mg/kg once a day 14 days): 30.0 ± 1.1 g
- Thickness of Paw (average of right and left paws) (adjuvant arthritis; 100 mg/kg once a day 14 days): 1119 ± 52 × 0.01 mm
- ΔB.W. (adjuvant arthritis; 100 mg/kg once a day 14 days): 29.7 ± 4.5 g

Compound: CCCCCCc1cc(NC(P(=O)(O)O)P(=O)(O)O)no1 [Example 22]
- Serum Ca++ [1, 5]: 1.44 ± 0.02 m mole/liter
- Serum Ca++ [1, 6]: 1.28 ± 0.04 m mole/liter
- Serum Ca++ [1, 8]: 1.45 ± 0.01 m mole/liter
- Serum Ca++ [1, 9]: 1.35 ± 0.01 m mole/liter
- Serum Ca++ [1, 3]: 1.21 ± 0.02 m mole/liter

Compound: CCCCCCCc1cc(NC(P(=O)(O)O)P(=O)(O)O)no1 [Example 23]
- Serum Ca++ [1, 5]: 1.49 ± 0.00 m mole/liter
- Serum Ca++ [1, 6]: 1.41 ± 0.02 m mole/liter
- Serum Ca++ [1, 9]: 1.40 ± 0.01 m mole/liter
- Serum Ca++ [1, 3]: 1.33 ± 0.01 m mole/liter
